{
  "source": "paper PMC8707700",
  "about": "“Ru(III) Complexes with Lonidamine-Modified Ligands” (International Journal of Molecular Sciences, 2021)",
  "key": {"[1]": {"biological_target": "T1, TrxR1 in rat liver extracts (Rattus norvegicus, UniProt O89049)", "T1 construct": "measured in the extracts from the liver of male white outbred rats; from tissue; host or cells: liver of male white outbred rats (homogenate supernatant)", "T1 sequence (O89049 1-499)": "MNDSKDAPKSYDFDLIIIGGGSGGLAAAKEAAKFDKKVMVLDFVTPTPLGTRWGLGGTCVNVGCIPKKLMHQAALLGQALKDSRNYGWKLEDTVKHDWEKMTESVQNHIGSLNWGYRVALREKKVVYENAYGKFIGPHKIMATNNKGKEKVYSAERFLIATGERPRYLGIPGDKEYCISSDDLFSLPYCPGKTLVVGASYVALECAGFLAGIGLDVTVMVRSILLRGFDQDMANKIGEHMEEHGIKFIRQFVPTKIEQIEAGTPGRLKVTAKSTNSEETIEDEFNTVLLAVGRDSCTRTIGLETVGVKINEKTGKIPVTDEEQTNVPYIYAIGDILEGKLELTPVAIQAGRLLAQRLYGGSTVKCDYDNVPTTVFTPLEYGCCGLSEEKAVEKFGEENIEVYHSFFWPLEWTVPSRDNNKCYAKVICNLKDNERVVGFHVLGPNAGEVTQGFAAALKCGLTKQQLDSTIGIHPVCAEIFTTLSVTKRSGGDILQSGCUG", "experiment": "Inhibition of TrxR1 in rat liver extracts", "assay_type": "biochemical", "conditions": "for mechanism of inhibition: efficacy independent of DTNB concentration; for Ki: estimated according to the Cheng–Prusoff equation, read-out: Ki (inhibition constant); for IC50: rat liver extracts, read-out: TrxR1 IC50, µM (95% C.I.)", "experimental": "The TrxR1 enzyme was measured in the extracts from the liver of male white outbred rats homogenised in 50 mM of PBS containing 1 mM of EDTA and centrifuged for 15 min at 10,000 rpm at 4 °C. The supernatant was adjusted to 7.5 µg/mL of protein as determined with pyrogallol red. Then, 40 μL of the enzyme solution was mixed with 10 μL of the test compounds in a 96-well clear flat bottom plate. After 10 min at 25 °C, 30 μL of PBS containing 0.7 mg/mL of BSA and 0.8 mM of NADPH was added. After 15 min at 25 °C, 20 µL of DTNB solution was added to the desired final concentrations. Kinetic studies were carried out by assaying TrxR1 at various concentrations of DTNB. The optical density of the samples was measured with an Infinite M200 Pro reader (Tecan, Grödig, Austria) at 412 nm every 30 s for 20 min. The activity of TrxR1 was calculated as a reaction slope relative to the control wells using Prism 8.0 (GraphPad, Inc., San Diego, CA, USA)."}, "[2]": {"system": "MCF-7 breast carcinoma cells", "experiment": "Cellular ruthenium accumulation by atomic absorption spectrometry", "assay_type": "cell-based", "conditions": "MCF-7, 20 μM", "experimental": "The cellular accumulation of ruthenium complexes was studied by atomic absorption spectrometry. The MCF-7 breast carcinoma cells were incubated with 16 and 20 for 1–24 h in DMEM with or without fetal bovine serum to reduce the binding of complexes with proteins. The accumulation was dependent on the linker’s length. […] The ruthenium complex entered the cells relatively fast; by 4 h, no notable further increase of the Ru content was observed (Figure 6). […] The negative effect of serum on the cellular Ru accumulation has been reported for other ruthenium species; however, significant effects were detectable only after longer exposure (24 h).\nThe intracellular accumulation of metal-containing compounds was determined as described. […]\nFor metal and protein quantification, pellets were resuspended in 250 µL of deionised water and lysed for 30 min with sonication. The protein content in lysates was determined by the Bradford method. […] Drying steps were adjusted, the atomisation temperature was set to 2400 °C, and the reading time was increased to 7 s. Ruthenium was quantified at 349.8945 nm. The mean integrated absorbance of triple injections was used throughout the measurements. Results (average of the two experiments) were expressed as nmol metal/mg protein."}, "[3]": {"system": "MCF-7", "experiment": "Antiproliferative activity, MTT assay", "assay_type": "cell-based, human", "conditions": "MTT, 72 h exposure; mean ± SD; read-out: IC50, µM MCF-7", "experimental": "(§1) The antiproliferative activity of new ligands and complexes was determined against human cell lines, including colon adenocarcinoma SW480, breast adenocarcinoma MCF-7, lung adenocarcinoma A549, neuroblastoma SHSY5Y, and non-tumourigenic HaCaT (Table 4). In general, complexes were more cytotoxic compared to ligands, lonidamine, and, in some cases, cisplatin. […] We chose this compound and the synthetically accessible complex 16 for mechanistic studies.\n(§2) The antiproliferative activity was studied by MTT assays as published previously. For flow cytometry studies, cells were plated into 6-well plates (Eppendorf, Germany; 4 × 10^5 cells in 2 mL of DMEM) and incubated for 24 h. Solutions of complexes in DMSO were prepared immediately prior to the day of the experiments. Cells were treated with either 20 µM of cisplatin, 50 µM of 16, or 20 µM of 20. Concentrations corresponded to two-fold IC50 values based on MTT assays. Cells were incubated for 24 h, pooled, washed with cold PBS, and resuspended in DMEM. Aliquots of cells were processed as recommended in the Muse Annexin V&Dead Cell Kit or Muse Caspase-3/7 Kit (Luminex). Measurements were carried out on a Muse Cell Analyser, Luminex corp., TX, USA."}, "[4]": {"system": "A549", "experiment": "Antiproliferative activity, MTT assay", "assay_type": "cell-based, human", "conditions": "MTT, 72 h exposure; mean ± SD; read-out: IC50, µM A549", "experimental": "as §1, §2"}, "[5]": {"system": "SW480", "experiment": "Antiproliferative activity, MTT assay", "assay_type": "cell-based, human", "conditions": "MTT, 72 h exposure; mean ± SD; read-out: IC50, µM SW480", "experimental": "as §1, §2"}, "[6]": {"system": "SH-SY5Y", "experiment": "Antiproliferative activity, MTT assay", "assay_type": "cell-based, human", "conditions": "72 h exposure, mean ± SD", "experimental": "as §1, §2"}},
  "note": "Like-named read-outs stand apart in the source and are kept apart here.",
  "data": [
    {"substance": "Na[trans-Ru(DMSO)(C30H37Cl2N5O)Cl4] [Compound 20]", "values": [
      {"measurement": "mechanism of inhibition", "setting": "[1]", "result": "non-competitive"},
      {"measurement": "Ki", "setting": "[1]", "result": 15.3, "unit": "µM"},
      {"measurement": "IC50", "setting": "[1]; DTNB 0.06 mM", "result": 17, "unit": "µM"},
      {"measurement": "IC50", "setting": "[1]; DTNB 0.1 mM", "result": 15, "unit": "µM"},
      {"measurement": "IC50", "setting": "[1]; DTNB 2.5 mM", "result": 15, "unit": "µM"},
      {"measurement": "cellular Ru accumulation", "setting": "[2]; 1–24 h", "result": "accumulated more readily than 16"},
      {"measurement": "IC50", "setting": "[3]", "result": "9.2 ± 0.1", "unit": "µM"},
      {"measurement": "IC50", "setting": "[4]", "result": "8.1 ± 1.1", "unit": "µM"},
      {"measurement": "IC50", "setting": "[5]", "result": "9.6 ± 1.3", "unit": "µM"},
      {"measurement": "IC50", "setting": "[6]", "result": "6.1 ± 0.3", "unit": "µM"}
    ]},
    {"substance": "Na[trans-Ru(DMSO)(C21H19Cl2N5O)Cl4] [Compound 16]", "values": [
      {"measurement": "mechanism of inhibition", "setting": "[1]", "result": "non-competitive"},
      {"measurement": "Ki", "setting": "[1]", "result": 30.7, "unit": "µM"},
      {"measurement": "IC50", "setting": "[1]; DTNB 0.06 mM", "result": 24, "unit": "µM"},
      {"measurement": "IC50", "setting": "[1]; DTNB 0.1 mM", "result": 33, "unit": "µM"},
      {"measurement": "IC50", "setting": "[1]; DTNB 2.5 mM", "result": 33, "unit": "µM"},
      {"measurement": "cellular Ru accumulation with serum in the culture medium", "setting": "[2]; serum present", "result": "only very low uptake"},
      {"measurement": "IC50", "setting": "[3]", "result": "23 ± 0.5", "unit": "µM"},
      {"measurement": "IC50", "setting": "[4]", "result": "> 30", "unit": "µM"},
      {"measurement": "IC50", "setting": "[5]", "result": "25 ± 7.1", "unit": "µM"},
      {"measurement": "IC50", "setting": "[6]", "result": "26.1 ± 5.5", "unit": "µM"}
    ]}
  ]
}
